This note sets out measurements from US20230265116A1, “DEGRADATION OF (EGFR) BY CONJUGATION OF EGFR INHIBITORS WITH E3 LIGASE LIGAND AND METHODS OF USE” (BEIGENE, LTD., priority 2020, published 2023).

Common to all, as to format: cell-based
Experiment [1] concerns the target T1, EGFR L858R/T790M/C797S (BaF3-LTC cells) (Homo sapiens, UniProt P00533, C797S/L858R/T790M).
T1 construct: expressed in transfected cells; host or cells: BaF3
Description: EGFR degradation HTRF assay, BaF3-LTC cells. Particulars: BaF3-LTC cells; for DC50: EGFR degradation, IC50 (DC50) from curve fit, read-out: DC50(nM) BaF3-LTC; for Dmax: read-out: Dmax (%) BaF3-LTC. In a few lines:
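EGFR remaining after a 16 h, 37 °C exposure (8 doses, 5-fold steps from 10 uM final, 0.2% DMSO) was quantified by HTRF antibodies in cell lysate. Percent inhibition relative to DMSO control was fitted by four-parameter logistic to give DC50; Dmax denotes maximal degradation.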
Background: In TR-FRET formats the signal depends on donor and acceptor labels being close together.

In experiment [2] the target is T2, EGFR L858R/C797S (BaF3 LC cells) (Homo sapiens, UniProt P00533, C797S/L858R).
T2 construct: expressed in transfected cells; host or cells: BaF3
T2 sequence (P00533 25-1210 C797S/L858R): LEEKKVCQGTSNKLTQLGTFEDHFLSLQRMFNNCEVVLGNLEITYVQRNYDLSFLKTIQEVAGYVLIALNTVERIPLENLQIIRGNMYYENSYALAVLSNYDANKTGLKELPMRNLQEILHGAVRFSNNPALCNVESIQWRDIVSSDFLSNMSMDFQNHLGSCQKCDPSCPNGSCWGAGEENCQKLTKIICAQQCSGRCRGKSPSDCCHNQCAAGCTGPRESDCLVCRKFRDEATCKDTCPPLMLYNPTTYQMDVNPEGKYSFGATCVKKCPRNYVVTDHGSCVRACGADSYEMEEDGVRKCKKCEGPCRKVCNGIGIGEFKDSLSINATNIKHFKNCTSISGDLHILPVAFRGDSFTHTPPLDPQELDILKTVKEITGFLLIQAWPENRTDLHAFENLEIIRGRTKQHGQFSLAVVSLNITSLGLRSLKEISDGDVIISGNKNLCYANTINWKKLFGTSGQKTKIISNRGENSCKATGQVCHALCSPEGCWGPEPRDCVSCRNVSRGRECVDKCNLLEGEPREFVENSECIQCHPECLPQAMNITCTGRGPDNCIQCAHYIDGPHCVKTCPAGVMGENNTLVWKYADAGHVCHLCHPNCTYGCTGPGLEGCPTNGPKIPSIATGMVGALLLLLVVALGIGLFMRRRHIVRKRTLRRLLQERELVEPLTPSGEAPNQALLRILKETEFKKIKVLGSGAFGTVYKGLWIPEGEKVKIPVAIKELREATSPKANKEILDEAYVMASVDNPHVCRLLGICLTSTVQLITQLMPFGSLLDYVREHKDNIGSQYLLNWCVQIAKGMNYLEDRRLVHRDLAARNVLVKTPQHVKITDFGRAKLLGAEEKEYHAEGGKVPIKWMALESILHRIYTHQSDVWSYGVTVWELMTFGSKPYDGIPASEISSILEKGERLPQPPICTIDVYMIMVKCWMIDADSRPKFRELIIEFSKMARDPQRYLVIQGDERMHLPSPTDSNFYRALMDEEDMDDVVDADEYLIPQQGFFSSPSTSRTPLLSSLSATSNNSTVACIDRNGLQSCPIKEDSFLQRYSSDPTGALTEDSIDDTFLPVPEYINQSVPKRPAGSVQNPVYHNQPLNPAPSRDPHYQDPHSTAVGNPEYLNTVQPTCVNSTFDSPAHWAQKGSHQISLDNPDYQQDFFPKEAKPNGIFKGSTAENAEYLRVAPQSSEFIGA
As to the kind of experiment: EGFR degradation HTRF assay, BaF3 LC cells. To be noted: BaF3 LC, 16h treatment; for Dmax: maximum percentage of degradation, read-out: BaF3 LC Dmax (%); for DC50: read-out: BaF3 LC DC50.

Experiment [3] deals with EGFR Del19/C797S (H1975-clone #23). As to the kind of experiment: EGFR degradation HTRF assay, H1975-clone #23 DC cells. Particulars: 16h treatment; for H1975 #23 DC Dmax (%): maximum percentage of degradation; for DC50: H1975 #23 DC, read-out: H1975 #23 DC DC50. In a few lines: (§1)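 The test uses H1975 clonal lines carrying lentiviral mutant EGFR with endogenous copies removed, treated 16h at 37° C., 5% CO2. EGFR left in the lysate is quantified by HTRF, and DC50 is derived from an 8-dose curve starting at 10 uM final.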

The test system of experiment [4] is EGFR Del19/T790M/C797S (H1975-clone #28). Description: EGFR degradation HTRF assay, H1975-clone #28 DTC cells. Particulars: H1975 # 28 DTC cells; for DC50: EGFR degradation, IC50 (DC50) from curve fit, read-out: DC50(nM) H1975 # 28 DTC; for Dmax (%) H1975 # 28 DTC: maximum percentage of inhibition (degradation). In a few lines: as §1
Setting [5] is: maximum percentage of inhibition (degradation).

One may read the DC50 as the concentration giving 50% degradation. One may read the Dmax as the greatest extent of degradation seen.

T1 sequence (P00533 25-1210 T790M/C797S/L858R): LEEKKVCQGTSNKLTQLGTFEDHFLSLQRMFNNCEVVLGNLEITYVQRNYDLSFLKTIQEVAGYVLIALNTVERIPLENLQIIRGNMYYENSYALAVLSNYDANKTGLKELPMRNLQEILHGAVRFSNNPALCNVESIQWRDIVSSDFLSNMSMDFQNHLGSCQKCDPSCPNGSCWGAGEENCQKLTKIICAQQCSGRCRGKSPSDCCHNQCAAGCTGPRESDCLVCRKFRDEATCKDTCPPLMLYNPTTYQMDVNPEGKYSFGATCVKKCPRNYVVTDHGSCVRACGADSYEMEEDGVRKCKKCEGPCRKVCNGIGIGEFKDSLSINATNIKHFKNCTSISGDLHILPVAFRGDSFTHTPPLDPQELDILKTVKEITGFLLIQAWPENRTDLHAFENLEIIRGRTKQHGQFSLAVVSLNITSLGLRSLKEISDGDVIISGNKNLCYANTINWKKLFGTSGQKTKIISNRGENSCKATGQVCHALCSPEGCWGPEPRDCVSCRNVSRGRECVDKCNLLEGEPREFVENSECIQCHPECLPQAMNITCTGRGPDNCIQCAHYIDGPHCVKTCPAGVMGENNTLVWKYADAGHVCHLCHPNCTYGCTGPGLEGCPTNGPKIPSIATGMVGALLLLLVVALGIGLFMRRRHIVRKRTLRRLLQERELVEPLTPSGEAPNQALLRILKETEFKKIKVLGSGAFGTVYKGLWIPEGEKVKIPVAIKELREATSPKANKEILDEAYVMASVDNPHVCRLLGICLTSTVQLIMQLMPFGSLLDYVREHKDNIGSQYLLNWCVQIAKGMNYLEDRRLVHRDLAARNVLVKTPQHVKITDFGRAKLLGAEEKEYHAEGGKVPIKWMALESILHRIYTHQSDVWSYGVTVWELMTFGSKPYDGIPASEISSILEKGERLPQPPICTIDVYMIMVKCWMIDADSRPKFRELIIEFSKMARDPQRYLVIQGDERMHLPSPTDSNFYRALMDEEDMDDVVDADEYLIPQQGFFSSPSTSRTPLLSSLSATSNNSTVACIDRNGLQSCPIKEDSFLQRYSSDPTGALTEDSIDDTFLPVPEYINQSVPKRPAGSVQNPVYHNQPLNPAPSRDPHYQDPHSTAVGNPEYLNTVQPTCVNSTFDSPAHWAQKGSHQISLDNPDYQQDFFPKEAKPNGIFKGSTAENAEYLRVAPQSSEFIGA

With `CCc1ccc2c(P(C)(C)=O)c(Nc3nc(Nc4cc(CC)c(N5CCC(N6CCN(CCc7cccc8c7oc(=O)n8C7CCC(=O)NC7=O)CC6)CC5)cc4OC)ncc3Br)ccc2n1` (centres unmarked) [Example 509, 3-(7-(2-(4-(1-(4-((5-bromo-4-((5-(dimethylphosphoryl)-2-ethylquinolin-6-yl)amino)pyrimidin-2-yl)amino)-2-ethyl-5-methoxyphenyl)piperidin-4-yl)piperazin-1-yl)ethyl)-2-oxobenzo[d]oxazol-3(2H)-yl)piperidine-2,6-dione], the DC50 turned out to be 7.93 nM in experiment [1], 15.5 nM in experiment [2], 1.94 nM in experiment [3] and 0.887 nM in experiment [4]. The Dmax in experiment [1] (setting [5]) turned out to be 92.5%; in experiment [2] it was 80.4%. The “H1975 #23 DC Dmax (%)” value in experiment [3] was 77.77%. In experiment [4], the “Dmax (%) H1975 # 28 DTC” value worked out at 79.34%.
Regarding `CCc1cc(Nc2ncc(Br)c(Nc3cc(F)c4nc(C)ccc4c3P(C)(C)=O)n2)c(OC)cc1N1CCC(N2CCN(C(=O)[C@@H]3CCN(c4cc(F)c([C@H]5CCC(=O)NC5=O)c(F)c4)C3)CC2)CC1` [Example 511, (R)-3-(4-((R)-3-(4-(1-(4-((5-bromo-4-((5-(dimethylphosphoryl)-8-fluoro-2-methylquinolin-6-yl)amino)pyrimidin-2-yl)amino)-2-ethyl-5-methoxyphenyl)piperidin-4-yl)piperazine-1-carbonyl)pyrrolidin-1-yl)-2,6-difluorophenyl)piperidine-2,6-dione], the DC50 in experiment [1] turned out to be 10.6 nM; in experiment [2], 9.67 nM; in experiment [3] it was 3.3 nM; in experiment [4], 1.04 nM. Moreover, the Dmax in experiment [1] (setting [5]) stood at 92.5%; in experiment [2], 88.9%. Besides, the “H1975 #23 DC Dmax (%)” value in experiment [3] is 67.01%. Moreover, the “Dmax (%) H1975 # 28 DTC” value in experiment [4] was determined as 65%.
As for `CCc1cc(Nc2ncc(Br)c(Nc3ccc4nc(C)ccc4c3P(C)(C)=O)n2)c(OC)cc1N1CCC(N2CCN(CCc3cccc4c3C(C)(C)C(=O)N4C3CCC(=O)NC3=O)CC2)CC1` (centres unmarked) [Example 514, 3-(4-(2-(4-(1-(4-((5-bromo-4-((5-(dimethylphosphoryl)-2-methylquinolin-6-yl)amino)pyrimidin-2-yl)amino)-2-ethyl-5-methoxyphenyl)piperidin-4-yl)piperazin-1-yl)ethyl)-3,3-dimethyl-2-oxoindolin-1-yl)piperidine-2,6-dione], the DC50 in experiment [1] was 3.51 nM; in experiment [2], 3.51 nM; in experiment [3], 1.83 nM; in experiment [4] it was 0.771 nM. Besides, the Dmax is 94.3% in experiment [1] (setting [5]) and 94% in experiment [2]. In addition, in experiment [3], the “H1975 #23 DC Dmax (%)” value turned out to be 76.66%. In addition, in experiment [4], the “Dmax (%) H1975 # 28 DTC” value was 66.48%.
In the case of `CCc1cc(Nc2ncc(Br)c(Nc3ccc4c(=O)n(C5CC5)ncc4c3P(C)(C)=O)n2)c(OC)cc1N1CCC(N2CCN(CCc3cc(F)c(C4CCC(=O)NC4=O)c(F)c3)CC2)CC1` (centres unmarked) [Example 521, 3-(4-(2-(4-(1-(4-((5-bromo-4-((2-cyclopropyl-5-(dimethylphosphoryl)-1-oxo-1,2-dihydrophthalazin-6-yl)amino)pyrimidin-2-yl)amino)-2-ethyl-5-methoxyphenyl)piperidin-4-yl)piperazin-1-yl)ethyl)-2,6-difluorophenyl)piperidine-2,6-dione], the DC50 in experiment [1] turned out to be 17 nM; in experiment [2] it was 51.6 nM; in experiment [3], 5.9 nM; in experiment [4] it was 1.01 nM. The maximal degradation (Dmax) was determined as 87.4% in experiment [1] (setting [5]) and 74.6% in experiment [2]. For the same compound, the “H1975 #23 DC Dmax (%)” value in experiment [3] came out at 75.56%. For the same compound, the “Dmax (%) H1975 # 28 DTC” value in experiment [4] was determined as 80.24%.
On to `CCc1cc(Nc2ncc(Br)c(Nc3ccc4c(=O)n(C5CC5)ncc4c3P(C)(C)=O)n2)c(OC)cc1N1CCC(N2CCN(C(=O)[C@@H]3CCN(c4cc(F)c([C@H]5CCC(=O)NC5=O)c(F)c4)C3)CC2)CC1` [Example 526, (R)-3-(4-((R)-3-(4-(1-(4-((5-bromo-4-((2-cyclopropyl-5-(dimethylphosphoryl)-1-oxo-1,2-dihydrophthalazin-6-yl)amino)pyrimidin-2-yl)amino)-2-ethyl-5-methoxyphenyl)piperidin-4-yl)piperazine-1-carbonyl)pyrrolidin-1-yl)-2,6-difluorophenyl)piperidine-2,6-dione], for which the 50% degradation concentration (DC50) in experiment [1] came out at 3.77 nM; in experiment [2], 40.3 nM; in experiment [3], 5.87 nM; in experiment [4], 0.574 nM. For the same compound, the Dmax in experiment [1] (setting [5]) came out at 96.3%; in experiment [2], 74.6%. Moreover, the “H1975 #23 DC Dmax (%)” value in experiment [3] turned out to be 52.26%. In experiment [4], the “Dmax (%) H1975 # 28 DTC” value is listed as 83.99%.
Turning to `CCc1cc(Nc2ncc(Br)c(Nc3ccc4c(=O)n(C)ncc4c3P(C)(C)=O)n2)c(OC)cc1N1CCC(N2CCN(C(=O)[C@@H]3CCN(c4cc(F)c([C@H]5CCC(=O)NC5=O)c(F)c4)C3)CC2)CC1` [Example 528, (R)-3-(4-((R)-3-(4-(1-(4-((5-bromo-4-((5-(dimethylphosphoryl)-2-methyl-1-oxo-1,2-dihydrophthalazin-6-yl)amino)pyrimidin-2-yl)amino)-2-ethyl-5-methoxyphenyl)piperidin-1)piperazine-1-carbonyl)pyrrolidin-1-yl)2,6-difluorophenyl)piperidine-2,6-dione], the DC50 came out at 3.63 nM in experiment [1], 14.9 nM in experiment [2], 1.58 nM in experiment [3] and 0.632 nM in experiment [4]. Moreover, the Dmax came to 97.3% in experiment [1] (setting [5]) and 83.9% in experiment [2]. Moreover, the “H1975 #23 DC Dmax (%)” value in experiment [3] is listed as 54.87%. The “Dmax (%) H1975 # 28 DTC” value in experiment [4] was 86.11%.
As for `CCOc1cc(N2CCC(N3CCN(C(=O)[C@@H]4CCN(c5cc(F)c([C@H]6CCC(=O)NC6=O)c(F)c5)C4)CC3)CC2)c(CC)cc1Nc1ncc(Br)c(Nc2ccc3nc(C)ccc3c2P(C)(C)=O)n1` [Example 531, (R)-3-(4-((R)-3-(4-(1-(4-((5-bromo-4-((5-(dimethylphosphoryl)-2-methylquinolin-6-yl)amino)pyrimidin-2-yl)amino)-5-ethoxy-2-ethylphenyl)piperidin-4-yl)piperazine-1-carbonyl)pyrrolidin-1-yl)-2,6-difluorophenyl)piperidine-2,6-dione], the DC50 in experiment [1] was 7.03 nM; in experiment [2], 51.8 nM; in experiment [3] it was 9.42 nM; in experiment [4], 1.55 nM. Besides, the figures for the Dmax in experiment [1] (setting [5]) and in experiment [2] were 96.4% and 83.5%, respectively. Further, in experiment [3], the “H1975 #23 DC Dmax (%)” value turned out to be 53.36%. In addition, the “Dmax (%) H1975 # 28 DTC” value in experiment [4] was 74.06%.
Turning to `CCOc1cc(N2CCC(N3CCN(CCc4ccc5c(c4)oc(=O)n5C4CCC(=O)NC4=O)CC3)CC2)c(CC)cc1Nc1ncc(Br)c(Nc2ccc3nc(C)ccc3c2P(C)(C)=O)n1` (centres unmarked) [Example 532], in experiment [1], the DC50 came out at 2.96 nM. For the same compound, the “Dmax (%) BaF3-LTC” value in experiment [1] (setting [5]) turned out to be 95.58%. In addition, in experiment [2], the Dmax came out at 88.1% and the DC50 was 3.84 nM. In addition, in experiment [3], the “H1975 #23 DC Dmax (%)” value worked out at 52.49% and the DC50 was determined as 0.591 nM. In experiment [4], the DC50 was 0.642 nM and the “Dmax (%) H1975 # 28 DTC” value is given as 70.91%.
Consider `CCc1ccc2c(P(C)(C)=O)c(Nc3nc(Nc4cc(CC)c(N5CCC(N6CCN(C(=O)[C@@H]7CCN(c8cc(F)c([C@H]9CCC(=O)NC9=O)c(F)c8)C7)CC6)CC5)cc4OC)ncc3Br)cc(F)c2n1` [Example 533, (R)-3-(4-((R)-3-(4-(1-(4-((5-bromo-4-((5-(dimethylphosphoryl)-2-ethyl-8-fluoroquinolin-6-yl)amino)pyrimidin-2-yl)amino)-2-ethyl-5-methoxyphenyl)piperidin-4-yl)piperazine-1-carbonyl)pyrrolidin-1-yl)-2,6-difluorophenyl)piperidine-2,6-dione], for which the DC50 turned out to be 5.05 nM in experiment [1], 28.8 nM in experiment [2], 7.47 nM in experiment [3] and 1.18 nM in experiment [4]. Moreover, the greatest degradation seen (Dmax) in experiment [1] (setting [5]) came out at 97.2%; in experiment [2] it was 90.8%. Also, the “H1975 #23 DC Dmax (%)” value in experiment [3] is recorded as 73.47%. Also, in experiment [4], the “Dmax (%) H1975 # 28 DTC” value is 83.78%.
Turning to `CCOc1cc(N2CCC(N3CCN(CCc4cc(F)c([C@H]5CCC(=O)NC5=O)c(F)c4)CC3)CC2)c(CC)cc1Nc1ncc(Br)c(Nc2cc(F)c3nc(C)ccc3c2P(C)(C)=O)n1` [Example 534, (R)-3-(4-(2-(4-(1-(4-((5-bromo-4-((5-(dimethylphosphoryl)-8-fluoro-2-methylquinolin-6-yl)amino)pyrimidin-2-yl)amino)-5-ethoxy-2-ethylphenyl)piperidin-4-yl)piperazin-1-yl)ethyl)-2,6-difluorophenyl)piperidine-2,6-dione], the DC50 in experiment [1] stood at 4.2 nM; in experiment [2], 10.2 nM; in experiment [3], 2.16 nM; in experiment [4], 0.749 nM. Further, the Dmax was 93.7% in experiment [1] (setting [5]) and 90.2% in experiment [2]. Also, in experiment [3], the “H1975 #23 DC Dmax (%)” value is listed as 80.71%. Moreover, the “Dmax (%) H1975 # 28 DTC” value in experiment [4] is on record as 83.48%.
